Experimental data from article PMC7569882, “A Probeless Capacitive Biosensor for Direct Detection of Amyloid Beta 1-42 in Human Serum Based on an Interdigitated Chain-Shaped Electrode” (Micromachines, 2020).

B1: CRP: C-reactive protein, interferent in selectivity test (protein, UniProt P02741 19-224, looked up)
C-reactive protein: QTDMSRKAFVFPKESDTSYVSLKAPLTKPLKAFTVCLHFYTELSSTRGYSIFSYATKRQDNEILIFWSKDIGYSFTVGGSEILFEVPEVTVAPVHICTSWESASGIVEFWVDGKPRVRKSLKKGYTVGAEASIILGQEQDSFGGNFEGSQSLVGDIGNVNMWDFVLSPDEINTIYLGGPFSPNVLNWRALKYEVQGEVFTKPQLWP

tested on: anti-aβ/SAM/ICE biosensor (anti-aβ antibody MOAB-2); assay: Selectivity of biosensor: change in capacitance ΔC with different analytes; format: binding; details: 1 Hz, in HS; TNF-α 0.5 ng mL^−1, insulin 10^3 ng mL^−1, CRP 10^5 ng mL^−1; n = 3
Description: Electrical impedance spectroscopy (EIS) (EC-Lab, Sp-200, Bio-Logic Science Instruments, Seyssinet-Pariset, France) was used for the recording of impedance and capacitance of the biosensor in PBS (pH 7.4). The EIS output signal is measured by applying an input voltage of 10 mV in a frequency range from 100 mHz–100 Hz, to the working and reference electrode. To explore the clinical application, the capacitive anti-aβ/SAM/ICE biosensor was employed for the direct detection of aβ 1-42 peptide in HS. Firstly, the pure HS was diluted in 1× PBS buffer at the ratio (1:1000), to avoid matrix effects in the measurement. Next, 1 μg mL^−1 of aβ 1-42 in pure HS was made, and then differential concentrations of aβ from 10^−3 to 10^3 ng mL^−1 were diluted using HS (1:1000). Various concentrations of aβ (10^−3–10^3 ng mL^−1) were incubated in the HS (1:1000) with the biosensor for 20 min, and the capacitance was measured. To verify the selectivity of the anti-aβ/SAM/ICE biosensor, the effects of tumor necrosis factor-alpha (TNF-α, 0.5 ng mL^−1), insulin (10^3 ng mL^−1), and C-reactive protein (CRP, 10^5 ng mL^−1) in HS were characterized using the change in capacitance ΔC value at 1 Hz frequency (Figure 7a). […] Moreover, the fabricated aβ/SAM/ICE biosensors were kept in the refrigerator at 4 °C for storage. Then, the capacitance of the biosensor at 1 Hz was recorded in PBS at 24 °C of room temperature, on the 1st, 2nd, 3rd, 7th, and 14th day after taking it out to check the stability of the biosensor, as shown in Figure 7b.

| Molecule | interference with aβ detection | ΔC response (change in capacitance) |
| --- | --- | --- |
| TNF-α | no significant interference | did not change much compared to the ΔC response for aβ |
| insulin: insulin, interferent in selectivity test | no significant interference | did not change much compared to the ΔC response for aβ |
| B1 | no significant interference | did not change much compared to the ΔC response for aβ |

biological target: aβ 1-42 peptide; assay: not given; details: Fluorescent; ref [43]; cited from earlier work
Source text: Table 2 Dissociation constants Kd of the interaction between aβ 1-42 peptide and various binding partners. | column: Kd (nM)

| Molecule | Kd |
| --- | --- |
| CN(C)c1ccc(/C=C/C2=CC(/C=C/c3ccc(N(C)C)cc3)=[O+][B-](F)(F)O2)cc1 [CRANAD-2, (T-4)-((1E,6E)-1,7-bis(4-(dimethylamino)phenyl)-1,6-heptadiene-3,5-dionato-kO^3,kO^5)difluoro-boron] | 38.7 nM |
| CN(C)c1ccc(/C=C/C=C/C=C(C#N)C#N)cc1 [DANIR-2c] | 26.9 nM |
| N#CC(C#N)=Cc1ccc(-c2ccc(-c3ccc(O)cc3)s2)s1 [NIAD-4, {(50-(p-Hydroxyphenyl)-2,20-bithienyl-5-yl)-methylidene}-propanedinitrile] | 10 nM |
